Test results published in patent US20140249214A1 (AMARIN PHARMACEUTICALS IRELAND LIMITED, priority 2013, published 2014).

What was measured:
[1] = Phase 1 open-label crossover drug-drug interaction study: pharmacokinetics of warfarin with or without ethyl eicosapentaenoate; settings: for AUC0-inf LSGM (least squares geometric mean) / Cmax LSGM (least squares geometric mean): W = warfarin (25 mg) administered alone; for effect of co-administration with ethyl eicosapentaenoate on Tmax: compared with Tmax when administered alone; for AUC0-inf / AUC0-last / Cmax / Tmax / Kel: plasma
Description: Twenty-five out of the twenty-six enrolled subjects completed the study. One enrolled subject withdrew consent and disconsinuted prematurely. […] On each of Day 8 through Day 35, all subjects received about 4 g of ethyl eicosapentaenoate (oral) as described herein.

[2] = system: international normalized ratio (INR); assay: Phase 1 drug-drug interaction study: anticoagulation pharmacodynamics of warfarin (INR); assay type: in vivo, healthy subjects; parameters: AUCINR Mean (SD) / AUCINR Median / AUCINR LSGM: unit not given beside the values
Description: Primary anticoagulation pharmacodynamic endpoints were maximum international normalized ratio (INRmax) and plasma international normalized ratio time curve (AUCINR).

[3] = warfarin 25 mg + ethyl eicosapentaenoate 4 g
[4] = least squares geometric mean, mixed models

CC(=O)C[C@H](c1ccccc1)c1c(O)c2ccccc2oc1=O [R-Warfarin, R-warfarin]
AUC0-inf LSGM (least squares geometric mean) [1]: 80,486 ng · h/mL | Cmax LSGM (least squares geometric mean) [1]: 1659.6 ng/mL | effect of co-administration with ethyl eicosapentaenoate on Tmax [1]: did not significantly affect | AUC0-inf ([1]; oral warfarin 25 mg alone): 82,620 (19,725) ng · h/mL | AUC0-last ([1]; oral warfarin 25 mg alone): 77,539 (17,374) ng · h/mL | Cmax ([1]; oral warfarin 25 mg alone): 1766 (673) ng/mL | Tmax ([1]; oral warfarin 25 mg alone): 1.0 (0.5, 9.0) h | AUC0-inf [1, 3]: 82,460 (22,798) ng · h/mL | AUC0-last [1, 3]: 77,117 (19,505) ng · h/mL | Cmax [1, 3]: 1865 (592) ng/mL | Kel [1, 3]: 0.016 (0.005) 1/h | Tmax [1, 3]: 1.0 (0.5, 1.5) h

CC/C=C\C/C=C\C/C=C\C/C=C\C/C=C\CCCC(=O)OCC [ethyl eicosapentaenoate, all-cis eicosa-5,8,11,14,17-pentaenoic acid ethyl ester]
anticoagulation pharmacodynamic effects compared to warfarin alone ([2]; in vivo): did not have an effect

CC(=O)C[C@@H](c1ccccc1)c1c(O)c2ccccc2oc1=O [S-Warfarin, S-warfarin]
AUC0-inf LSGM (least squares geometric mean) [1]: 58,344 ng · h/mL | Cmax LSGM (least squares geometric mean) [1]: 1715.9 ng/mL | effect of co-administration with ethyl eicosapentaenoate on Tmax [1]: did not significantly affect | AUC0-inf ([1]; oral warfarin 25 mg alone): 60,216 (15,009) ng · h/mL | AUC0-last ([1]; oral warfarin 25 mg alone): 59,253 (15,429) ng · h/mL | Cmax ([1]; oral warfarin 25 mg alone): 1836 (729) ng/mL | Kel ([1]; oral warfarin 25 mg alone): 0.020 (0.005) 1/h | Tmax ([1]; oral warfarin 25 mg alone): 1.0 (0.5, 9.0) h | AUC0-inf [1, 3]: 60,253 (16,204) ng · h/mL | AUC0-last [1, 3]: 59,134 (16,451) ng · h/mL | Cmax [1, 3]: 1973 (616) ng/mL | Kel [1, 3]: 0.020 (0.005) 1/h | Tmax [1, 3]: 1.0 (0.5, 1.5) h

CC(=O)CC(c1ccccc1)c1c(O)c2ccccc2oc1=O (stereo not drawn) [Warfarin, warfarin]
AUCINR, concomitant vs warfarin alone ([2]; in vivo): similar | INRmax, concomitant vs warfarin alone ([2]; in vivo): similar | AUCINR LSGM [2, 4]: 216.2 | INRmax LSGM [2, 4]: 1.80 | Median time to INRmax (TINRmax), co-administered vs warfarin alone ([2]; p=0.026): significantly lower | TINRmax Median ([2]; time to INRmax, warfarin 25 mg, EPA 4 g): 48.0 h | AUCINR Mean (SD) ([2]; warfarin 25 mg, EPA 4 g): 217.8 (27.7) | AUCINR Median ([2]; warfarin 25 mg, EPA 4 g): 213.4 | INRmax Mean (SD) ([2]; warfarin 25 mg, EPA 4 g): 1.86 (0.48) | INRmax Median ([2]; warfarin 25 mg, EPA 4 g): 1.74
